The values that follow come from patent publication US20240417410A1, “TRICYCLIC COMPOUNDS FOR THE TREATMENT OF CANCER” (Hoffmann-La Roche Inc., priority 2023, published 2024).

The subject of one assay is AGS cells (KRAS G12D). As to the kind of experiment: Cell viability assay (Cell Counting Kit-8, 3-day). The format is cell-based, human. Conditions: Homo sapiens, 72 h, 72 hrs incubation. An outline of the steps: (§1)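 After overnight attachment, cells received compounds (0.5% DMSO) for 72 hrs; viability was then quantified with CCK-8, reading OD450 minus OD650, and IC50 values were obtained from a 4-parameter concentration-response fit.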
For orientation: Formazan colour is commonly taken as a measure of viable cells.

For assay [1], the system named is NCI-H358 cells (KRAS G12C). In words: Cell viability assay (Cell Counting Kit-8, 3-day). The assay is classed as cell-based, human. To be noted: Homo sapiens, NCI-H358, 72 h, NCI-H358, 72 hrs incubation. An outline of the steps: as §1
For a further assay, the system named is SW620 cells (KRAS G12V). In words: Cell viability assay (Cell Counting Kit-8, 3-day). The format is cell-based, human. To be noted: Homo sapiens, SW-620; SW620, 72 hrs incubation. An outline of the steps:
as §1

The next assay has as its target KRAS G12C-BRAF complex (Homo sapiens (Human), UniProt P01116+P62937, G12C). In words: KRAS-BRAF with CYPA (500 nM) interaction assay (TR-FRET, Example 136). The assay is classed as biochemical. To be noted: KRAS G12C-BRAF disruption. On the technique in general: TR-FRET usually uses a lanthanide donor and a delayed reading to cut background.
Assay [2] concerns phosphorylation of ERK, KRAS G12C in NCI-H358 cells. As to the kind of experiment: pERK inhibition assay. The format is cell-based. Conditions: Homo sapiens, NCI-H358, 4 h. An outline of the steps:
(§2)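 Phospho-ERK quantified by in-cell ELISA with TMB read-out at OD450 following 4 h compound exposure (final 0.5% DMSO). Cell lines were SW620 (KRAS G12V), AGS (G12D) and NCI-H358 (G12C), grown in RPMI-1640 with 10% FBS. A 4-parameter sigmoidal model gave the IC50.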

Assay [3] relates to phosphorylation of ERK, KRAS G12D in AGS cells. In words: pERK inhibition assay. The format is cell-based. To be noted: Homo sapiens, AGS, 4 h. An outline of the steps: as §2
Assay [4] relates to phosphorylation of ERK, KRAS G12V in SW620. As to the kind of experiment: pERK inhibition assay. The assay is classed as cell-based. To be noted: Homo sapiens, SW-620, 4 h, SW620 cells. An outline of the steps: as §2

Sequence of KRAS G12C-BRAF complex (P01116-2 other isoform, or with tags, fused parts or gaps G12C): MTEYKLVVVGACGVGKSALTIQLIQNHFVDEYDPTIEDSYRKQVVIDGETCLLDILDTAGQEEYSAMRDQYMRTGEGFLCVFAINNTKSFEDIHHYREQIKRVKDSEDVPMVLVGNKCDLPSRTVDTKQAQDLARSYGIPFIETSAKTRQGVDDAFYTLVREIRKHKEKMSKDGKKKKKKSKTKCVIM
Sequence of KRAS G12C-BRAF complex (P62937 whole entry): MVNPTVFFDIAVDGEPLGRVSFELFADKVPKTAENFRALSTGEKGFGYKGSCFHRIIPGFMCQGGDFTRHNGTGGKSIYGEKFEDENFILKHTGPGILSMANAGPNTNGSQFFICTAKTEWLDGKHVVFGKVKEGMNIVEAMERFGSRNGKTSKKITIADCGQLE

Usually IC50 stands for the concentration that inhibits the measured activity by half. Higher therefore signals a need for much substance. As for `CO[C@@H](C)c1ncc(N2CCOCC2)cc1-c1c2c3cc(cc4c3n1CC(F)(F)C4)-c1csc(n1)C[C@H](NC(=O)[C@H]1C[C@@H]1c1cccnc1)C(=O)N1CCC[C@H](N1)C(=O)OCC(C)(C)C2` (atropisomer, axis not shown; (M)) [Example 91, (1S,2S)-N-[(7S,13S)-23,23-difluoro-(20M)-20-[2-[(1S)-1-methoxyethyl]-5-morpholino-3-pyridyl]-17,17-dimethyl-8,14-dioxo-15-oxa-4-thia-9,21,30,31-tetrazahexacyclo[23.3.1.1^2,5.1^9,13.0^19,27.0^21,26]hentriaconta-1 (28),2,5 (31),19,25 (29),26-hexaen-7-yl]-2-(3-pyridyl)cyclopropanecarboxamide], the IC50 came out at 9.7 nM with AGS cells (KRAS G12D); 2.8 nM in assay [1]; 0.6 nM in the assay with SW620 cells (KRAS G12V); 8.1 nM against KRAS G12C-BRAF complex; 0.5 nM in assay [2]; 3.2 nM in assay [3]. This molecule also came in with a half-maximal inhibitory concentration (IC50) in assay [4] of 0.6 nM.

As for `CO[C@@H](C)c1ncc(N2CCN(C)CC2)cc1-c1c2c3cc(cc4c3n1CC(F)(F)C4)-c1csc(n1)C[C@H](NC(=O)[C@H]1C[C@@H]1c1cccnc1)C(=O)N1CCC[C@H](N1)C(=O)OCC(C)(C)C2` (atropisomer, axis not shown; (M)) [Example 92], the 50% inhibitory concentration (IC50) worked out at 8.8 nM in the assay with AGS cells (KRAS G12D); 2.5 nM in assay [1]; 0.7 nM with SW620 cells (KRAS G12V); 16 nM on KRAS G12C-BRAF complex; 1.4 nM in assay [2]; 6 nM in assay [3]. In addition, half-maximal inhibition in assay [4] (IC50) was put at 1 nM.

On to `CO[C@@H](C)c1ncc(N2CCN(C)CC2)cc1-c1c2c3cc(cc4c3n1CCO4)-c1csc(n1)C[C@H](NC(=O)[C@H]1C[C@@H]1c1cncnc1)C(=O)N1CCC[C@H](N1)C(=O)OCC(C)(C)C2` (atropisomer, axis not shown; (M)) [Example 93, (1S,2S)-N-[(7S,13S)-(20M)-20-[2-[(1S)-1-methoxyethyl]-5-(4-methylpiperazin-1-yl)-3-pyridyl]-17,17-dimethyl-8,14-dioxo-15,24-dioxa-4-thia-9,21,30,31-tetrazahexacyclo[23.3.1.1^2,5.1^9,13.0^19,27.0^21,26]hentriaconta-1 (28),2,5 (31), 19,25 (29),26-hexaen-7-yl]-2-pyrimidin-5-yl-cyclopropanecarboxamide], for which the IC50 in the assay on AGS cells (KRAS G12D) turned out to be 5 nM; in assay [1], 3 nM; in the assay with SW620 cells (KRAS G12V), 1 nM; on KRAS G12C-BRAF complex, 14.8 nM; in assay [2] it was 1.2 nM; in assay [3] it was 3.5 nM. In assay [4], this molecule came in with a half-inhibitory concentration (IC50) of 1.2 nM.

Regarding `CO[C@@H](C)c1ncc(N2CCOCC2)cc1-c1c2c3cc(cc4c3n1CCC4)-c1csc(n1)C[C@H](NC(=O)[C@H]1C[C@@H]1c1cncnc1)C(=O)N1CCC[C@H](N1)C(=O)OCC(C)(C)C2` (atropisomer, axis not shown; (M)) [Example 94, (1S,2S)-N-[(7S,13S)-(20M)-20-[2-[(1S)-1-methoxyethyl]-5-morpholino-3-pyridyl]-17,17-dimethyl-8,14-dioxo-15-oxa-4-thia-9,21,30,31-tetrazahexacyclo[23.3.1.1^2,5.1^9,13.0^19,27.0^21,26]hentriaconta-1 (28),2,5 (31),19,25 (29),26-hexaen-7-yl]-2-pyrimidin-5-yl-cyclopropanecarboxamide], the half-maximal inhibitory concentration (IC50) turned out to be 6.9 nM with AGS cells (KRAS G12D); 2.3 nM in assay [1]; 0.5 nM in the assay on SW620 cells (KRAS G12V); 6.9 nM against KRAS G12C-BRAF complex; 0.4 nM in assay [2]; 2.4 nM in assay [3]. This molecule also had an IC50 in assay [4] of 0.4 nM.

As to `CO[C@@H](C)c1ncc(N2CCN(C)CC2)cc1-c1c2c3cc(cc4c3n1CC(F)(F)C4)-c1csc(n1)C[C@H](NC(=O)[C@H]1C[C@@H]1c1cncnc1)C(=O)N1CCC[C@H](N1)C(=O)OCC(C)(C)C2` (atropisomer, axis not shown; (M)) [Example 95], the IC50 with AGS cells (KRAS G12D) turned out to be 8.7 nM; in assay [1], 4 nM; in the assay on SW620 cells (KRAS G12V), 1.3 nM; on KRAS G12C-BRAF complex, 13.7 nM; in assay [2], 0.5 nM; in assay [3] it was 3.4 nM. Further, the IC50 in assay [4] came to 0.4 nM.

With `CO[C@@H](C)c1ncc(N2CCN(C)CC2)cc1-c1c2c3cc(cc4c3n1CCO4)-c1csc(n1)C[C@H](NC(=O)[C@H]1C[C@@H]1c1cccnc1)C(=O)N1CCC[C@H](N1)C(=O)OCC(C)(C)C2` (atropisomer, axis not shown; (M)) [Example 96, (1S,2S)-N-[(7S,13S)-(20M)-20-[2-[(1S)-1-methoxyethyl]-5-(4-methylpiperazin-1-yl)-3-pyridyl]-17,17-dimethyl-8,14-dioxo-15,24-dioxa-4-thia-9,21,30,31-tetrazahexacyclo[23.3.1.1^2,5.1^9,13.0^19,27.0^21,26]hentriaconta-1 (28),2,5 (31),19,25 (29),26-hexaen-7-yl]-2-(3-pyridyl)cyclopropanecarboxamide], the IC50 with AGS cells (KRAS G12D) was determined as 1.7 nM; in assay [1], 1 nM; in the assay with SW620 cells (KRAS G12V), 0.2 nM; against KRAS G12C-BRAF complex, 9.4 nM; in assay [2], 0.4 nM; in assay [3], 1.2 nM. Moreover, in assay [4], the IC50 was 0.4 nM.

On to `CO[C@@H](C)c1ncc(N2CCOCC2)cc1-c1c2c3cc(cc4c3n1CCO4)-c1csc(n1)C[C@H](NC(=O)[C@H]1C[C@@H]1c1cccnc1)C(=O)N1CCC[C@H](N1)C(=O)OCC(C)(C)C2` (atropisomer, axis not shown; (M)) [Example 97, (1S,2S)-N-[(7S,13S)-(20M)-20-[2-[(1S)-1-methoxyethyl]-5-morpholino-3-pyridyl]-17,17-dimethyl-8,14-dioxo-15,24-dioxa-4-thia-9,21,30,31-tetrazahexacyclo[23.3.1.12.19,13 019,27 21,26,]hentriaconta-1 (28),2,5 (31), 19,25 (29),26-hexaen-7-yl]-2-(3-pyridyl)cyclopropanecarboxamide], for which the IC50 is 2.6 nM in the assay on AGS cells (KRAS G12D); 1.9 nM in assay [1]; 0.3 nM in the assay with SW620 cells (KRAS G12V); 14.4 nM against KRAS G12C-BRAF complex; 0.4 nM in assay [2]; 1.4 nM in assay [3]. The IC50 in assay [4] turned out to be 0.3 nM.

Turning to `CO[C@@H](C)c1ncc(N2CCN(CC(F)(F)F)CC2)cc1-c1c2c3cc(cc4c3n1CCO4)-c1csc(n1)C[C@H](NC(=O)[C@H]1C[C@@H]1c1cccnc1)C(=O)N1CCC[C@H](N1)C(=O)OCC(C)(C)C2` (atropisomer, axis not shown; (M)) [Example 98, (1S,2S)-N-[(7S,13S)-(20M)-20-[2-[(1S)-1-methoxyethyl]-5-[4-(2,2,2-trifluoroethyl)piperazin-1-yl]-3-pyridyl]-17,17-dimethyl-8,14-dioxo-15,24-dioxa-4-thia-9,21,30,31-2,5 9,13 19,27 21,26]hentriaconta-1 (28),2,5 (31),19,25 (29),26-hexaen-tetrazahexacyclo[23.3.1.1″>0.1″>7-yl]-2-(3-pyridyl)cyclopropanecarboxamide], the IC50 turned out to be 8.1 nM in the assay with AGS cells (KRAS G12D); 4 nM in assay [1]; 0.6 nM in the assay on SW620 cells (KRAS G12V); 11.1 nM on KRAS G12C-BRAF complex; 0.9 nM in assay [2]; 4.6 nM in assay [3]. Also, the IC50 in assay [4] was 0.5 nM.

`CO[C@@H](C)c1ncc(N2CCN(C)CC2)cc1-c1c2c3cc(cc4c3n1CCC4)-c1csc(n1)C[C@H](NC(=O)[C@H]1C[C@@H]1c1cnccn1)C(=O)N1CCC[C@H](N1)C(=O)OCC(C)(C)C2` (atropisomer, axis not shown; (M)) [Example 99, (1S,2S)-N-[(7S,13S)-(20M)-20-[2-[(1S)-1-methoxyethyl]-5-(4-methylpiperazin-1-yl)-3-pyridyl]-17,17-dimethyl-8,14-dioxo-15-oxa-4-thia-9,21,30,31-tetrazahexacyclo[23.3.1.1^2,5.1^9,13.0^19,27.0^21,26]hentriaconta-1 (28),2,5 (31), 19,25 (29),26-hexaen-7-yl]-2-pyrazin-2-yl-cyclopropanecarboxamide]: the IC50 in the assay with AGS cells (KRAS G12D) is 7.8 nM; in assay [1], 2.1 nM; in the assay with SW620 cells (KRAS G12V), 0.4 nM; against KRAS G12C-BRAF complex, 12.6 nM; in assay [2], 0.5 nM; in assay [3], 1.9 nM. In assay [4], the IC50 came to 0.4 nM.

On to `CO[C@@H](C)c1ncc(N2CCN(C)CC2)cc1-c1c2c3cc(cc4c3n1CCCO4)-c1csc(n1)C[C@H](NC(=O)[C@H]1[C@H](C)[C@@H]1C)C(=O)N1CCC[C@H](N1)C(=O)OCC(C)(C)C2` (atropisomer, axis not shown; (M)) [Example 100, (1r,2R,3S)-N-[(7S,13S)-(20M)-20-[2-[(1S)-1-methoxyethyl]-5-(4-methylpiperazin-1-yl)-3-pyridyl]-17,17-dimethyl-8,14-dioxo-15,25-dioxa-4-thia-9,21,31,32-tetrazahexacyclo[24.3.1.1^2,5.1^9,13.0^19,28.0^21,27]dotriaconta-1 (29),2,5 (32),19,26 (30),27-hexaen-7-yl]-2,3-dimethyl-cyclopropanecarboxamide], for which the IC50 in the assay with AGS cells (KRAS G12D) worked out at 8.2 nM; in assay [1] it was 2.7 nM; with SW620 cells (KRAS G12V), 0.7 nM; against KRAS G12C-BRAF complex it was 33.1 nM; in assay [2], 1 nM; in assay [3], 4.1 nM. In assay [4], this molecule returned a concentration for half-maximal inhibition (IC50) of 0.7 nM.
